Reference: a melting point compilation (Tetko et al.; mined from patent text by program, amines drawn as free bases though some values may be those of a salt)

melting point	Structure (SMILES)
186 to 187 °C	O=C(CC1CCCC1)c1c(-c2ccc3c(Br)c(OCc4nnn[nH]4)ccc3c2)oc2ccccc12
175 to 178 °C	COc1c(C#C[Si](C)(C)C)cc(-n2ccc(=O)[nH]c2=O)cc1-c1ccc2cc(NS(C)(=O)=O)ccc2c1
223 °C	O=C(C=Cc1ccccc1)N1CCc2c([nH]c3ccccc23)C1c1ccc2c(c1)CCC2 (centres undefined)
104 to 106 °C	COc1cccc(Cc2cnc(NCCSCc3nccs3)[nH]c2=O)c1
157 to 159 °C	N=C(N)NCCCOc1ccc2c(c1)NC(=O)C(CCC(=O)O)C2 (centres undefined)
78 to 80 °C	CCOC(C)O[C@H]1C(=O)N[C@H]1c1ccccc1 (some centres undefined)
157 to 159 °C	N#Cc1cnn2c1N(C(=O)CCl)CCC2c1cccc(C(F)(F)F)c1 (centres undefined)
86 to 88 °C	CCCOC1(c2ccc(C)cc2C)N=C(c2ccc(C)cc2C)N=CN1 (centres undefined)
146 °C	C=CCOc1ccc(C(=O)Oc2ccc(O)cc2)cc1
197 to 198 °C	Cc1ccc(C(=O)Nc2c(NC(=O)CN3CCC4(CC3)OCCO4)ccc3c2C(=O)c2ccccc2C3=O)cc1
94 to 97 °C	CC(=O)N1CCC2(CC1)Cc1ccccc1O2
122 °C	CCCC1COc2cc(C3COc4cc(C#N)c(F)cc4C3)c(F)cc2C1 (centres undefined)
156 to 158 °C	COC(=O)C1=C(CCc2ccccc2OC)NC(CC(=O)N2CCN(CCCN(C)C)CC2)=C(C(=O)OC)C1c1c(Cl)cccc1Cl (centres undefined)
149 to 150 °C	CNCc1ccccc1-c1ccc(C(=O)N2Cc3ccc(C(=O)NCc4cccnc4)n3Cc3ccccc32)cc1
112 to 114 °C	CC(C)(C)c1cc(I)c2c(c1)CNC1(CCCCC1)O2
239 to 240 °C	CC(=O)NC[C@H]1CN(c2ccc(C(=O)c3cnc4c5ccccc5ccn34)cc2)C(=O)O1
241 to 242 °C	COc1ccc(CN2CCOCC2)c(OC)c1-c1ccc(C[C@H](NC(=O)c2c(Cl)cccc2Cl)C(=O)O)cc1
249 to 250 °C	CC1(C)CC(=O)Nc2ccc(-c3cc(F)cc(C#N)c3)cc21
130 to 135 °C	COc1ccccc1NC(=O)Nc1ccc2c(c1)CCN(C(=O)Nc1ccc(OCCO)cc1Cl)C2
200 °C	COc1ccc(C(O)(c2ccc3c(c2)c(-c2cccc(Cl)c2)nc2nnnn23)c2cncn2C)cc1 (centres undefined)
229 to 230 °C	O=C(CNc1ccccc1)Nc1cc(Cl)ccc1C(=O)O
115 to 117 °C	COC(=O)CCCCCNC(=O)/C=C/C=C/c1ccccc1[N+](=O)[O-]

melting point	Structure (SMILES)
170 to 172 °C	CN1CCC(NC(=O)c2cc(Cl)cc3oc(-c4ccccc4)nc23)CC1
110 to 111 °C	CC(=O)SCC(CC(N)=O)C(=O)O (centres undefined)
145 to 146 °C	CCN(C(=O)NS(=O)(=O)c1ccccc1)c1ccc(Cl)cc1
98.5 to 99.5 °C	CC(C)c1cn(C)cc(-c2cccc(C(F)(F)F)c2)c1=O
245 to 247 °C	CCN1C(C(=O)Nc2ccccc2)=C(O)c2ccc3ccccc3c2S1(=O)=O
140 to 144 °C	CC(CNc1ccc(C(=O)O)cc1)Oc1ccccc1 (centres undefined)
97 to 98 °C	COC(=O)c1cc(OCc2cccc(Cl)c2)ccc1OCCCC#N
257 °C	CCCCc1nc(SC2CCCCC2)c(C(=O)O)n1Cc1cc2c(cc1Cl)OCO2
232 to 233 °C	CC(C)(C)c1ccc(C(=O)Nc2cn3nc(NCc4cccnc4)ccc3n2)cc1
244 to 246 °C	Cc1cccc2c(=O)c(CS(C)(=O)=O)cn(C)c12
234 °C	Cc1cc(-c2ncn3c(C(F)(F)F)cc(-c4cccc(C(F)(F)F)c4)nc23)ccn1
108 to 111 °C	Cn1nc(-c2ccccc2C(F)(F)F)nc1-c1ccccc1C(F)(F)F
104 to 106 °C	CCOC(=O)c1c(CN(CC)CC)nc2sc3c(c2c1-c1ccc(OC)c(OC)c1)CCN(C(=S)Nc1ccccc1)C3
95 to 96 °C	FC(F)(F)c1ccc(C(Cl)=NN=Cc2ccccc2)cc1
220 to 222 °C	CCOc1ccc(-c2ccc3c(c2)C=C(C(=O)O)CCN3C=O)cc1F
157 to 158 °C	CC1=C(c2ccccc2)C(=O)N(C(C)(C)C(=O)c2cc(F)cc(F)c2)CO1
164 to 165 °C	Cc1ccc(C2c3c(C)c(NC(=O)c4ccc5c(c4)OCO5)c(C)c(C)c3OC2(C)C)cc1 (centres undefined)
230 to 232 °C	CC(=O)c1ccc2c(c1)CCc1ccc(C(=O)O)cc1S2
152 to 154 °C	OCc1ccc(Nc2nc(Oc3ccccc3)nc(Oc3ccccc3)n2)cc1
190 °C	CCCCc1nc2cc3ccccc3cc2[nH]1
185 °C	COC(=O)c1ccc(OC)cc1I
110 °C	Cc1nc(Sc2ccc([N+](=O)[O-])cc2)nc(C)c1Cl

melting point	Structure (SMILES)
207 to 208 °C	CCOCc1nc2c(N)nc3cc(OCc4cccc(C)c4)ccc3c2n1CC(C)C
103 to 104 °C	CCOC(=O)C1(C(C)C)OC2(O)C3CCCN3C(=O)C(C(C)C)N2C1=O (centres undefined)
120 to 121 °C	CCCCCCCCNC(=O)C(C)=Cc1cccc(N2CC(C(=O)O)CC2=O)c1 (centres undefined)
271 to 272 °C	COc1ccc(-c2nc(-c3ccc4oc(=O)[nH]c4c3)cs2)cc1OC
168 to 170 °C	Nc1c(-c2ccc(C(F)(F)F)cc2F)nnn1Cc1ccc(O)cc1
258 to 260 °C	COc1cc2nc(Cl)n3ncnc3c2cc1OC
83 to 85 °C	N#CCNCNCC#N
> 220 °C	N#CC(C(=O)c1ccc(-c2nnn[nH]2)cc1)=C1CCCCN1
60 to 61 °C	COC(=O)c1cncn1C1c2ccccc2C=CC1(C)C (centres undefined)
213 to 215 °C	CNc1nnc2ccc(-c3cccc(N(C)C(C)=O)c3)nn12
283 °C	N#C/C(=C\c1ccc(O)c(O)c1)C(=O)NCCCCNC(=O)/C(C#N)=C/c1ccc(O)c(O)c1
142 to 144 °C	CCOCc1nc2c(N)nc3cc(-c4ccccc4)cnc3c2n1CCCONC(C)C
125 to 145 °C	Cc1cc(C)nc(NC(=O)NS(=O)(=O)C2CC3C=CC2O3)n1 (centres undefined)
217 to 219 °C	c1cnn(Cc2ccc3c(c2)-c2[nH]nc(-c4ccsc4)c2C3)n1
44 to 47 °C	O=Cc1ccc(OS(=O)(=O)C(F)(F)F)c2ccccc12
228 to 229 °C	C/C(=C\c1ccc(C(F)(F)F)cc1)C(=O)Nc1cc(Cl)ccc1C(=O)O
137 to 138 °C	Nc1cc(Cl)ccc1C(=O)c1cccc(O)c1
117 to 120 °C	CCCCOC(=O)c1c(N)c2cccnc2n(CC)c1=O
222 to 224 °C	COc1ccc(CCC2SC(=O)NC2=O)c2ccc(=O)n(C)c12 (centres undefined)
242 °C	Nc1ccc(-c2noc(-c3cnn4c(C(F)F)cc(-c5ccc(C(F)(F)F)cc5)nc34)n2)cn1
89 to 90 °C	COc1cc(N2CCN(Cc3ccc(CNC(C)=O)cc3)CC2)nc(OC)n1

Structure (SMILES)	melting point
O=C1NC(=S)NC(=O)C1=Cc1c[nH]c2ccccc12	320 °C
CCOC(=O)C1(C(=O)OCC)CCC2(CC1)NCCc1cc(OC)c(OC)cc12	103 to 104 °C
CC(=O)OCc1ncc2n1-c1ccc(Cl)cc1C(c1ccccc1F)=[N+]([O-])C2	203 to 205 °C
O=C(NCc1ccc(Cl)cc1)c1cn(CCN2CCOCC2)c2ccc(C#CCO)cc2c1=O	215 to 218 °C
